# Data taken from US7087623B2, “Thiazole and other heterocyclic ligands for mammalian dopamine, muscarinic and serotonin receptors and transporters, and methods of use thereof” (Sepracor Inc., priority 2001, dated 2006).
# Read-outs that look alike come from different tables or passages of the source.
# Experiments:
# [1] = target: T1, human serotonin 5-HT2C receptor (Homo sapiens, UniProt P28335); assay: Radioligand binding assay, human 5-HT2C receptors ([3H]Mesulergine)
# T1 construct: expressed in transfected cells; host or cells: CHO-K1
# T1 sequence (P28335 33-458): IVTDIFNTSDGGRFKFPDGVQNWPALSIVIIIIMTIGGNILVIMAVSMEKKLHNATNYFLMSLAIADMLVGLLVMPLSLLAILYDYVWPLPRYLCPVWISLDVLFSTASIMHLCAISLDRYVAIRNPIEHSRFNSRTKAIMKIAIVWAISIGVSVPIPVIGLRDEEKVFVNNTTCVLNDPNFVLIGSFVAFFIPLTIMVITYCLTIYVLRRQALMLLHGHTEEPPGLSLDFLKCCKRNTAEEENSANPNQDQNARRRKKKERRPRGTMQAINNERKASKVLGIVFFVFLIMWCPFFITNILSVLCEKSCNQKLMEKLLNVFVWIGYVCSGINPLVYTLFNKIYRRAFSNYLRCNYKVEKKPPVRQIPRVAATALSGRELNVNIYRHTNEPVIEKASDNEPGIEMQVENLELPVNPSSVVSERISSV
# Experimental: (§1) The human 5-HT2a and 5-HT2b screens were conducted according to Bonhaus, D. W. et al. Br. J. Pharmacol. 1995, 115, 622. The human 5-HT2c screen was conducted according to Wolf, W. A. et al. J. Neurochem. 1997, 69, 1449. The human 5-HT6 screen was conducted according to Monsma, F. J. et al. Mol. Pharmacol. 1993, 43, 320.
# CHO-K1 cells stably transfected with a plasmid encoding the human serotonin 5-HT2C receptor were used to prepare membranes in modified Tris-HCl pH 7.7 buffer using standard techniques. […] Non-specific binding was estimated in the presence of 1 μM mianserin. […] See Wolf, W. A. and Schutz, J. S. “The serotonin 5-HT2C receptor is a prominent serotonin receptor in basal ganglia: evidence from functional studies on serotonin-mediated phosphoinositide hydrolysis” J. Neurochem. 69: 1449–1458, 1997.
# (§2) The human 5-HT2a and 5-HT2b screens were conducted according to Bonhaus, D. W. et al. Br. J. Pharmacol. 1995, 115, 622. The human […], W. A. et al. J. Neurochem. 1997, 69, 1449. The human 5-HT6 screen was conducted according to Monsama, F. J. et al. Mol. Pharmacol. 1993, 43, 320. The assay to human D3 receptors was conducted according to Sokoloff, P. et al. Nature 1990, 347;146. The human dopamine transporter assay was conducted according to Gu, H. et. al. J. Biol. Chem. 1994, 269 (10);7124; and Giros, B. et al. Trends. Pharmacol. Sci. 1993, 14: 43. The human muscarinic M1–M4 screens were conducted according to Buckley N. J. et al. Mol. Pharmacol. 1989, 35:469.
# [2] = target: T2, human serotonin 5-HT2B receptor (Homo sapiens, UniProt P41595); assay: Radioligand binding assay, human 5-HT2B receptors ([3H]LSD)
# T2 construct: expressed in transfected cells; host or cells: CHO-K1
# Experimental: This assay measures binding of [^3H]LSD to human serotonin 5-HT2B receptors. CHO-K1 cells stably transfected with a plasmid encoding the human serotonin 5-HT2B receptor were used to prepare membranes in modified Tris-HCl pH 7.4 buffer using standard techniques. […] Non-specific binding was estimated in the presence of 10 μM serotonin. Membranes were filtered and washed 3 times and the filters were counted to determine [^3H]LSD specifically bound. See Bonhaus, D. W. et al. “The pharmacology and distribution of human 5-hydroxytryptamine2B (5-HT2B) receptor gene products: comparison with 5-HT2A and 5-HT2C receptors” Brit.
# The human 5-HT2b screen was conducted according to Wolf, W. A. et al. J. Neurochem.
# [3] = target: T3, human dopamine D3 receptor (Homo sapiens, UniProt P35462); assay: Radioligand binding assay, human dopamine D3 receptors ([3H]Spiperone)
# T3 construct: expressed in transfected cells; host or cells: CHO
# Experimental: The assay for binding to human D3 receptors was conducted according to Sokoloff, P. et al. Nature 1990, 347, 146.
# CHO cells stably transfected with a plasmid encoding the human dopamine D3 receptor were used to prepare membranes in modified Tris-HCl pH 7.4 buffer using standard techniques. […] Non-specific binding was estimated in the presence of 25 μM S-(−)-sulpiride. […] See Sokoloff, P. et al. “Molecular cloning and characterization of a novel dopamine receptor (D3) as a target for neuroleptics” Nature 347: 146–151, 1990.
# as §2
# [4] = target: T4, human serotonin 5-HT6 receptor (Homo sapiens, UniProt P50406); assay: Radioligand binding assay, human 5-HT6 receptors ([3H]LSD)
# T4 construct: expressed in transfected cells; host or cells: HeLa/E6-7
# Experimental: as §1
# This assay measures binding of [^3H]LSD (lysergic acid diethylamide) to human serotonin 5-HT6 receptors. HeLa/E6–7 cells stably transfected with a plasmid encoding the human serotonin 5-HT6 receptor were used to prepare membranes in modified Tris-HCl pH 7.4 buffer using standard techniques. A 30 μg aliquot of membrane was incubated with 1.5 nM [^3H]LSD for 120 minutes at 37° C. Non-specific binding was estimated in the presence of 5 μM 5-HT. Membranes were filtered and washed 3 times and the filters were counted to determine [^3H]LSD specifically bound. See Monsma, Jr., F. J. et al. “Cloning and expression of a novel serotonin receptor with high affinity for tricyclic psychotropic drugs” Mol. Pharmacol. 43: 320–327, 1993.
# as §2
# [5] = target: T5, human serotonin 5-HT2A receptor (Homo sapiens, UniProt P28223); assay: Radioligand binding assay, human 5-HT2A receptors ([3H]Ketanserin)
# T5 construct: expressed in transfected cells; host or cells: CHO-K1
# Experimental: as §1
# CHO-K1 cells stably transfected with a plasmid encoding the human serotonin 5-HT2A receptor were used to prepare membranes in modified Tris-HCl pH 7.7 buffer using standard techniques. […] Non-specific binding was estimated in the presence of 1 μM mianserin. […] See Bonhaus, D. W. et al. “The pharmacology and distribution of human 5-hydroxytryptamine2B (5-HT2B) receptor gene products: comparison with 5-HT2A and 5-HT2C receptors” Brit. J. Pharmacol. 115: 622–628, 1995; and Saucier, C and Albert, P. R. “Identification of an endogenous 5-hydroxytryptamine2A receptor in NIH-3T3 cells: agonist-induced down-regulation involves decreases in receptor RNA and number” J. Neurochem. 68: 1998–2011, 1997.
# as §2
# [6] = human 5-HT2c, Example 16 table, read-out: IC50 (nM) 5-HT2c
# [7] = human 5-HT2b, Example 16 table, read-out: IC50 (nM) 5-HT2b
# [8] = Example 20 table, read-out: IC50 (nM) Against Human D3 Receptors
# [9] = human 5-HT6, Example 16 table, read-out: IC50 (nM) 5-HT6
# [10] = human 5-HT2a, Example 16 table, read-out: IC50 (nM) 5-HT2a
# [11] = human, Example 100 table, read-out: IC50 (nM) 5-HT2C
# [12] = human, Example 100 table, read-out: IC50 (nM) 5-HT2B
# [13] = human, Example 100 table, read-out: IC50 (nM) D3
# [14] = human, Example 100 table, read-out: IC50 (nM) 5-HT6
# [15] = human, Example 100 table, read-out: IC50 (nM) 5-HT2A
# T4 sequence (P50406 whole entry): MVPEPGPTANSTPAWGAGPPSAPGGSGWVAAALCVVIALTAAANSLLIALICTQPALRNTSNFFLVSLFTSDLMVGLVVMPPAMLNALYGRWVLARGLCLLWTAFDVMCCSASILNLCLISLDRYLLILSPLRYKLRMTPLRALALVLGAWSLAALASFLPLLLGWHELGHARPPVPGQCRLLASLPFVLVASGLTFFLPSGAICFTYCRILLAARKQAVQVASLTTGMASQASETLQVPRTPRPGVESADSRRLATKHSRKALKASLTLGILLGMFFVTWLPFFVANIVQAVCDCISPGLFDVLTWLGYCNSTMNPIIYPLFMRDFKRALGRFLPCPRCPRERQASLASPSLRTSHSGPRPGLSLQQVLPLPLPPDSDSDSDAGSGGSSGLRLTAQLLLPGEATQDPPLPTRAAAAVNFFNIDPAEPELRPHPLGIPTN
# T5 sequence (P28223 whole entry): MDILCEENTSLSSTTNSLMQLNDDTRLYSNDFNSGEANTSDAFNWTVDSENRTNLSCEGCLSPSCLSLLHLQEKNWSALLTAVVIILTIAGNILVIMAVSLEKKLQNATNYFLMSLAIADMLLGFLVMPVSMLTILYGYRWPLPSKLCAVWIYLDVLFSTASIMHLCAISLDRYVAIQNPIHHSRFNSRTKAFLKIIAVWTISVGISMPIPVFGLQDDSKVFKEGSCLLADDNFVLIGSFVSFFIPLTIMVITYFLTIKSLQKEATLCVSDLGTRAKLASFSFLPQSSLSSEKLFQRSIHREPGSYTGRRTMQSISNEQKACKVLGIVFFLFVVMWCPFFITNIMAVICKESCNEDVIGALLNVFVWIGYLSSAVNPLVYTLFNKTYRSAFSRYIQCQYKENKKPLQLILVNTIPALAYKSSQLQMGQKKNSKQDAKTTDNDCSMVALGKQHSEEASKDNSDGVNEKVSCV
# T2 sequence (P41595 whole entry): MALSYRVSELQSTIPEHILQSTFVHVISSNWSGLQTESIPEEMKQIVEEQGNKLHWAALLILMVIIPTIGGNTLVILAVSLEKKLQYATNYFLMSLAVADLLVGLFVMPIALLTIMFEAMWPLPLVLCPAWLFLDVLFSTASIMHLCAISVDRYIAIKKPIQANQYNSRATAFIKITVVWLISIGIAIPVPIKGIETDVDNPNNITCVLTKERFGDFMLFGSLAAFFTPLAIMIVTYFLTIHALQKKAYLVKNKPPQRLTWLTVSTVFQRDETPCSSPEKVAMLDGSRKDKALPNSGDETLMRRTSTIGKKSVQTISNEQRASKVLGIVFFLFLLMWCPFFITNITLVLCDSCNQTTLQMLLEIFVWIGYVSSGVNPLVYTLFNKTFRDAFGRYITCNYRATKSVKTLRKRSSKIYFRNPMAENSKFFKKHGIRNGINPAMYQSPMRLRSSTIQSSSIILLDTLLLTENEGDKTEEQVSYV
# T3 sequence (P35462 whole entry): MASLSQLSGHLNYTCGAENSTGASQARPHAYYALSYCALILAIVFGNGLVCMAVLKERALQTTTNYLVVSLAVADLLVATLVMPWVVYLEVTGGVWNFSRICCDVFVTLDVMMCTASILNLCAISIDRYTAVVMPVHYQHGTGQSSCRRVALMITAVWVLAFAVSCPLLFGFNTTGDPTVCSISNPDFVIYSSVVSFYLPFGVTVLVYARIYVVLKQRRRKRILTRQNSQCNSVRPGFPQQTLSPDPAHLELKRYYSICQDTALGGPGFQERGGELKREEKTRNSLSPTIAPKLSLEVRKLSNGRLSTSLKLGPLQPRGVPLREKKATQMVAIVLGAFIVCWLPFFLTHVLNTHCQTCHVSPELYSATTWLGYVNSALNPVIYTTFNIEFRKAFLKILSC
Structure (SMILES),"IC50 [1, 6]","IC50 [2, 7]","IC50 [3, 8]","IC50 [4, 9]","IC50 [5, 10]",also measured
CN1CCN(c2nc(C3(c4ccc(F)cc4)CCCCC3)cs2)CC1 [Compound 81],< 1000 nM,< 100 nM,< 1000 nM,< 1000 nM,> 1000 nM,
COc1ccc(C2(c3csc(N4CCN(C)CC4)n3)CCOCC2)cc1 [Compound 51],> 1000 nM,> 1000 nM,> 1000 nM,< 1000 nM,> 1000 nM,
CC(C)N1CCN(c2nc(C3(c4ccc(Cl)cc4)CCCCC3)cs2)CC1 [Compound 78],> 1000 nM,< 1000 nM,< 1000 nM,> 1000 nM,> 1000 nM,
Cc1c(-c2csc(N3CCN(C)CC3)n2)sc2ccc(Cl)cc12 [Compound 113],,,,,,"IC50 [1, 11]: < 1000 nM; IC50 [2, 12]: > 1000 nM; IC50 [3, 13]: > 1000 nM; IC50 [4, 14]: > 1000 nM; IC50 [5, 15]: < 1000 nM"
CN1CCN(c2nc(C3(c4ccc(Cl)cc4)CCCCC3)cs2)CC1 [Compound 34],< 100 nM,< 100 nM,< 1000 nM,< 1000 nM,> 1000 nM,
CN1CCC(c2nc(C3(c4ccc(Cl)cc4)CCC3)cs2)CC1 [Compound 31],< 1000 nM,< 1000 nM,< 1000 nM,< 1000 nM,> 1000 nM,
"Clc1ccc(C2(c3csc(C4CCNCC4)n3)CCC2)cc1 [Compound 30, 4-{4-[1-(4-chlorophenyl)cyclobutyl]thiazol-2-yl}-piperidine]",< 1000 nM,< 1000 nM,> 1000 nM,< 1000 nM,< 1000 nM,
"Clc1ccc(C2(c3csc(NCCCN4CCOCC4)n3)CCC2)cc1 [Compound 21, {4-[1-(4-chlorophenyl)-cyclobutyl]thiazol-2-yl}-(3-morpholin-4-yl-propyl)amine]",< 1000 nM,< 1000 nM,> 1000 nM,> 1000 nM,> 1000 nM,
CN1CCC(c2nc(C3(c4cccc(Cl)c4)CCOCC3)cs2)CC1 [Compound 69],> 1000 nM,> 1000 nM,> 1000 nM,< 1000 nM,> 1000 nM,
CN1CCCN(c2nc(C3(c4ccccc4F)CCCC3)cs2)CC1 [Compound 139],,,,,,"IC50 [1, 11]: < 100 nM; IC50 [2, 12]: < 100 nM; IC50 [3, 13]: < 1000 nM; IC50 [4, 14]: < 100 nM; IC50 [5, 15]: < 1000 nM"
Clc1ccc(C2(c3nc(N4CCNCC4)sc3Cl)CCOCC2)cc1 [Compound 39],< 1000 nM,< 1000 nM,> 1000 nM,< 1000 nM,< 1000 nM,
Clc1cccc(C2(c3csc(C4CCCNC4)n3)CCOCC2)c1 (stereo not drawn) [Compound 38],> 1000 nM,> 1000 nM,> 1000 nM,< 1000 nM,> 1000 nM,
CN1CCN(c2nc(C3(c4ccc(OC(F)(F)F)cc4)CCOCC3)cs2)CC1 [Compound 55],< 1000 nM,> 1000 nM,< 1000 nM,> 1000 nM,< 1000 nM,
CN1CCN(c2nc(C3(c4ccc(C(F)(F)F)cc4)CCOCC3)cs2)CC1 [Compound 43],> 1000 nM,> 1000 nM,< 1000 nM,< 1000 nM,> 1000 nM,
CN1CCN(c2nc(Cc3csc4ccc(Cl)cc34)cs2)CC1 [Compound 33],< 100 nM,< 10 nM,< 1000 nM,< 1000 nM,< 1000 nM,
CN1CCN(c2nc(C3(c4ccc(F)cc4)CCOCC3)cs2)CC1 [Compound 47],,,,,,"IC50 ([1]; IC50 (nM) 5-HT2c, human 5-HT2c, Example 16 table): > 1000 nM; IC50 [2]: > 1000 nM; IC50 ([3]; IC50 (nM) Against Human D3 Receptors, Example 20 table): > 1000 nM; IC50 ([4]; IC50 (nM) 5-HT6, human 5-HT6, Example 16 table): < 1000 nM; IC50 ([5]; IC50 (nM) 5-HT2a, human 5-HT2a, Example 16 table): > 1000 nM"
Clc1cccc(C2(c3csc(C4CCNCC4)n3)CCOCC2)c1 [Compound 68],> 1000 nM,> 1000 nM,> 1000 nM,< 1000 nM,> 1000 nM,
CC(C)N1CCN(c2nc(C3(c4ccc(F)cc4)CCCCC3)cs2)CC1 [Compound 80],< 1000 nM,< 1000 nM,< 1000 nM,> 1000 nM,> 1000 nM,
